What all share (type): cell-based, Leishmania infantum
Assay [1] deals with L. infantum promastigotes. The assay is described as follows: Flow cytometry analysis of mitochondrial membrane potential (JC-1). The conditions noted are these: 24 h. On the procedure: (§1) The L. infantum strain (MHOM/PT/1988/IMT151) was chosen for the cytometry analysis and promastigotes at a concentration of 1 × 10^7 parasites/mL were tested against the three compounds evaluated in the intracellular amastigotes assay (LC132, LC137 and LC138). Flow cytometry analysis were performed in a CytoFlex flow cytometer (Beckman Coulter), at an excitation wavelength of 488 nm (blue laser). Data acquisition were collected and registered using channels FL1 (flurescein isothiocyanate, FITC) with a BP filter (525 ± 40 nm) for Fluorescein and FL2 (IP) with a BP filter (570 ± 20 nm) for propidium iodide (PI) and 10,000 total events per sample were analysed using CytExpert v2.0.0.153 software. Samples were analysed in triplicates and two to three independent experiments were performed. Values are expressed as a percentage of cells for a given marker, relatively to the number of cells analysed ± standard error of mean (SEM).
Mitochondrial damage was evaluated through the analysis of the mitochondrial membrane potential with MitoProbe™ JC-1 Assay Kit for Flow Cytometry (Molecular Probes, Invitrogen). Treated L. infantum promastigotes were incubated with IC50 and 2 × IC50 of the tested compounds and amphotericin B for 24 h, at 24 °C ± 1 °C. […] Cells were analysed by flow cytometry. […]
In general terms: Flow cytometry measures light scatter and fluorescence of single cells or particles in a stream.

Assay [2] relates to L. infantum promastigotes. The assay is described as follows: Flow cytometry detection of phosphatidylserine externalization (Annexin V/PI). The conditions noted are these: 2 × IC50, 48 h, mean ± SEM. On the procedure: as §1
To distinguish apoptotic cell death from necrotic cell death, cells were counterstained with PI, a non-permeable stain with affinity for nucleic acids, as it selectively enters necrotic cells. […] After adding 400 μL of 1 × Binding Buffer, samples were analysed in Cytoflex flow cytometer. Annexin V-FITC and PI were measured in FL1 and FL2 channels, respectively. […]

For assay [3], the system named is L. infantum promastigotes. The assay is described as follows: Promastigotes DNA fragmentation (agarose gel). The conditions noted are these: IC50 concentrations, 24 h. As to the method: 2 mM H2O2 was used as DNA damage inductor and non-treated cells were used as control. After centrifugation (10 min, 800× g) DNA was extracted using a commercial extraction kit (High Template DNA Preparation Kit, Roche, Germany), according to the manufacturer’s instructions.

In assay [4] the test system is L. infantum promastigotes. Description: Flow cytometry detection of reactive oxygen species (CM-H2DCFDA). The conditions noted are these: 2 × IC50, 5 h. On the procedure: as §1
For the detection of reactive oxygen species (ROS), a cell permeable probe CM-H2DCFDA (5 µg/mL Molecular Probes, Invitrogen) was used. Briefly, promastigotes were incubated with IC50 and 2 × IC50 of the tested compounds and amphotericin B for 5 h and 24 h, at 24 °C. […] Parasites were resuspended in normal medium (M199 medium) and fluorescence was measured by flow cytometry (blue laser), and the signals registered in the FL1/FITC channel.

SMILES strings stand for the structures.

With `C[C@@H]1[C@H](O)[C@@H](C)/C=C/C=C/C=C/C=C/C=C/C=C/C=C/[C@H](O[C@@H]2O[C@H](C)[C@@H](O)[C@H](N)[C@@H]2O)C[C@@H]2O[C@](O)(C[C@@H](O)C[C@@H](O)[C@H](O)CC[C@@H](O)C[C@@H](O)CC(=O)O[C@H]1C)C[C@H](O)[C@H]2C(=O)O` [AmB, amphotericin B, reference compound], the entries for the “population percentage of JC-1 aggregates” value in assay [1] (2 × IC50 concentration) and in assay [1] (IC50 concentration) were 69.1% and 64.9%, respectively. The “late apoptosis (Annexin+/PI+) cell population” value in assay [2] is 17.5 ± 0.9%.
Consider `CCOC(=O)C1CCC2(CC1)OOC1(OO2)C2CC3CC(C2)CC1C3` (stereo not drawn) [LC138], for which the “genomic DNA fragmentation” value in assay [3] is “did not produce DNA fragmentation”. For the same molecule, the “late apoptosis (Annexin+/PI+) cell population” value in assay [2] came to 20.5 ± 4.2%. For the same molecule, the “ROS levels (FITC+), early phase of exposure” value in assay [4] is listed as “slight increase”.
